Data from US8691855B2, “Compounds, isomer thereof, or pharmaceutically acceptable salts thereof as vanilloid receptor antagonist and pharmaceutical compositions containing the same” (Amorepacific Corporation, priority 2008, dated 2014).

The molecules below were run against T1, vanilloid receptor (Rattus norvegicus, UniProt O35433) (assay: 45Ca influx test (antagonist calcium uptake test) in rat DRG neurons stimulated with capsaicin). Settings: DRG neuron; @3 μM; neonatal SD rat DRG neurons; capsaicin 0.5 μM; read-out: Antagonist Calcium Uptake Test, percent inhibition of capsaicin response.
T1 construct: DRG nerve cells from the primary culture of 2 days were equilibrated; endogenous in cells; host or cells: primary culture of dorsal root ganglion neurons from neonatal SD rats
Format: cell-based
Procedure: 1) Separation of spinal dorsal root ganglia (DRG) in newborn rats and primary culture thereof
Neonatal (2-3 clay old or younger than 2-3 day old) SD rats were put in ice for 5 minutes to anesthetize and disinfected with 70% ethanol. DRG of all part of spinal cord were dissected (Wood et al., 1988, J. Neurosci. 8, pp 3208-3220) and collected in DME/F12 medium to which 1.2 g/l sodium bicarbonate and 50 mg/l gentamycin were added. The DRG were incubated sequentially at 37° C. for 30 mins in 200 U/ml collagenase and 2.5 mg/ml trypsin, separately. The ganglia were washed twice with DME/F12 medium supplemented with 10% horse serum, triturated through a fire-polished Pasteur pipette, filtered through Nitex 80 membrane to obtain single cell suspension and the suspension was washed once more. This was subjected to centrifugation, then resuspended in cell culture medium at certain level of cell density. As the cell culture medium, DME/F12 medium supplemented with 10% horse serum was diluted with identical medium conditioned by C6 glioma cells 2 clays on a confluent monolayer (1:1), and NGF (Nerve Growth Factor) was added to adjust 200 ng/ml as final concentration. After the cells were grown 2 days in medium where cytosine arabinoside (Ara-C, 100 μM) was added to kill dividing nonneuronal cells, medium was changed to one without Ara-C. The resuspended cells were plated at a density of 1500-2000 neurons/well onto Terasaki plates previously coated with 10 μg/ml poly-D-ornithine.
2) ^45Ca Influx Experiments
DRG nerve cells from the primary culture of 2 days were equilibrated by washing 4 times with HEPES (10 mM, pH 7.4)-buffered Ca^2+, Mg^2+-free HBSS (H-HBSS). The solution in each well was removed from the individual well. Medium containing the test compound plus capsaicin (final concentration 0.5 μM) and ^45Ca (final concentration 10 μCi/ml) in H-HBSS was added to each well and incubated at room temperature for 10 nuns. Terasaki plates were washed five times with H-HBSS and dried at room temperature. To each well, 0.3% SDS (10 μl) was added to elute ^45Ca. After the addition of scintillation cocktail of into each well, the amount of ^45Ca influx into neuron was measured by counting radioactivity. Antagonistic activities of test compounds against vanilloid receptor were calculated as percent of the inhibition of maximal response of capsaicin at a concentration of 0.5 μM.

T1 sequence (O35433 whole entry): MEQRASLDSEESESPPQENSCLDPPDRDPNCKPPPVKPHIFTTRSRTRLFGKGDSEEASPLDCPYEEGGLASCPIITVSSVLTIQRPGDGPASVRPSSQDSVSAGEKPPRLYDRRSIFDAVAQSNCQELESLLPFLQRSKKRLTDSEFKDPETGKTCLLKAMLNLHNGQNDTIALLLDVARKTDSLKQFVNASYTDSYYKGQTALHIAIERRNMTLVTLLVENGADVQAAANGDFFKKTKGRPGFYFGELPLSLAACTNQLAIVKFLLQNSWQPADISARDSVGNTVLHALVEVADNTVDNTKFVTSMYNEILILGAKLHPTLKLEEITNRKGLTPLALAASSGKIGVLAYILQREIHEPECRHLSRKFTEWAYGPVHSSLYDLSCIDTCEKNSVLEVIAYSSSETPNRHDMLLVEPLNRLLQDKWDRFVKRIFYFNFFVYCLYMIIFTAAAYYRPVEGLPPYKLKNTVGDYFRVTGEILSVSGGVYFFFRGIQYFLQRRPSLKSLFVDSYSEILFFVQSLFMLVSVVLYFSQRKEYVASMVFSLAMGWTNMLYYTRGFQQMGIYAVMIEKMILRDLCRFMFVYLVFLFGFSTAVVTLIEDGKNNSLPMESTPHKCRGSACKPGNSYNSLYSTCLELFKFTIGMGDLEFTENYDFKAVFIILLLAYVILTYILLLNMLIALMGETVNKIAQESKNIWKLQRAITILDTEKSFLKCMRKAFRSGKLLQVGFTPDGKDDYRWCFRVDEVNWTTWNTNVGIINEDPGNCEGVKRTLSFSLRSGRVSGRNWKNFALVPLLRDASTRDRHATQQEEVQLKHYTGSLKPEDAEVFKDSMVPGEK

| inhibition at 3 µM [%] | SMILES |
| --- | --- |
| 89 | C[C@@H](NC(=O)c1coc(-c2ccc(C(F)(F)F)cc2)n1)c1cc(F)c(NS(C)(=O)=O)c(F)c1 [Example 74, 2-(4-Trifluoromethyl-phenyl)-oxazole-4-carboxylic acid [1-(3,5-difluoro-4-methanesulfonylamino-phenyl)-ethyl]-amide] |

Same assay, conditions: neonatal SD rat DRG neurons; capsaicin 0.5 μM; 45Ca

| SMILES | IC50 [nM] |
| --- | --- |
| CC(C)c1ccc(I)c(Oc2nc(C(=O)N[C@H](C)c3cc(F)c(NS(C)(=O)=O)c(F)c3)co2)c1 [Example 52, 2-(2-Iodo-5-isopropyl-phenoxy)-oxazole-4-carboxylic acid [1-(3,5-difluoro-4-methanesulfonylamino-phenyl)-ethyl]-amide] | 1800 |
| C[C@@H](NC(=O)c1coc(Oc2cc(C(F)(F)F)ccc2Cl)n1)c1cc(F)c(NS(C)(=O)=O)c(F)c1 [Example 53, 2-(2-Chloro-5-trifluoromethyl-phenoxy)-oxazole-4-carboxylic acid [1-(3,5-difluoro-4-methanesulfonylamino-phenyl)-ethyl]-amide] | 720 |
| C[C@@H](NC(=O)c1coc(Oc2cc(C(F)(F)F)ccc2C2CC2)n1)c1cc(F)c(NS(C)(=O)=O)c(F)c1 [Example 54, 2-(2-Cyclopropyl-5-trifluoromethyl-phenoxy)-oxazole-4-carboxylic acid [1-(3,5-difluoro-4-methanesulfonylamino-phenyl)-ethyl]-amide] | 2900 |
| C[C@@H](NC(=O)c1coc(Oc2cccc(C3CCC3)c2)n1)c1cc(F)c(NS(C)(=O)=O)c(F)c1 [Example 56, 2-(3-Cyclobutyl-phenoxy)-oxazole-4-carboxylic acid [1-(3,5-difluoro-4-methanesulfonylamino-phenyl)-ethyl]-amide] | 560 |
| CC(C)c1cccc(Oc2ccc(C(=O)N[C@H](C)c3cc(F)c(NS(C)(=O)=O)c(F)c3)o2)c1 [Example 59, 5-(3-Isopropyl-phenoxy)-furan-2-carboxylic acid [1-(3,5-difluoro-4-methanesulfonylamino-phenyl)-ethyl]-amide] | 1000 |
| CS(=O)(=O)Nc1c(F)cc(CNC(=O)c2ccc(-c3ccc(C(F)(F)F)cc3)s2)cc1F [Example 60, 5-(4-Trifluoromethyl-phenyl)-thiophene-2-carboxylic acid 3,5-difluoro-4-methanesulfonylamino-benzylamide] | 6100 |
| CS(=O)(=O)Nc1c(F)cc(CNC(=O)c2cc(-c3ccc(Br)cc3)oc2C(F)(F)F)cc1F [Example 61, 5-(4-Bromo-phenyl)-2-trifluoromethyl-furan-3-carboxylic acid 3,5-difluoro-4-methanesulfonylamino-benzylamide] | 2800 |
| C[C@@H](NC(=O)c1cc(-c2ccc(Br)cc2)oc1C(F)(F)F)c1cc(F)c(NS(C)(=O)=O)c(F)c1 [Example 62, 5-(4-Bromo-phenyl)-2-trifluoromethyl-furan-3-carboxylic acid [1-(3,5-difluoro-4-methanesulfonylamino-phenyl)-ethyl]-amide] | 440 |
| CC(C)(C)c1ccc(-c2ccc(C(=O)NCc3cc(F)c(NS(C)(=O)=O)c(F)c3)s2)cc1 [Example 63, 5-(4-tert-Butyl-phenyl)-thiophene-2-carboxylic acid 3,5-difluoro-4-methanesulfonylamino-benzylamide] | > 10000 |
| CCOc1cccc(-c2ccc(C(=O)NCc3cc(F)c(NS(C)(=O)=O)c(F)c3)s2)c1 [Example 64, 5-(3-Ethoxy-phenyl)-thiophene-2-carboxylic acid 3,5-difluoro-4-methanesulfonylamino-benzylamide] | 4100 |
| CS(=O)(=O)Nc1c(F)cc(CNC(=O)c2ccc(-c3cccc(C(F)(F)F)c3)s2)cc1F [Example 65, 5-(3-Trifluoromethyl-phenyl)-thiophene-2-carboxylic acid 3,5-difluoro-4-methanesulfonylamino-benzylamide] | 2700 |
| CCCCOc1ccccc1-c1nc(C(=O)N[C@H](C)c2cc(F)c(NS(C)(=O)=O)c(F)c2)co1 [Example 66, 2-(2-Butoxy-phenyl)-oxazole-4-carboxylic acid [1-(3,5-difluoro-4-methanesulfonylamino-phenyl)-ethyl]-amide] | 750 |
| CC(C)c1cccc(-c2ccc(C(=O)N[C@H](C)c3cc(F)c(NS(C)(=O)=O)c(F)c3)s2)c1 [Example 72, 5-(3-Isopropyl-phenyl)-thiophene-2-carboxylic acid [1-(3,5-difluoro-4-methanesulfonylamino-phenyl)-ethyl]-amide] | 1400 |
| COc1ccc(C(C)C)cc1-c1nc(C(=O)N[C@H](C)c2cc(F)c(NS(C)(=O)=O)c(F)c2)co1 [Example 77, 2-(5-Isopropyl-2-methoxy-phenyl)-oxazole-4-carboxylic acid [1-(3,5-difluoro-4-methanesulfonylamino-phenyl)-ethyl]-amide] | 2000 |
| C[C@@H](NC(=O)c1coc(-c2ccc(-c3ccccc3)cc2)n1)c1cc(F)c(NS(C)(=O)=O)c(F)c1 [Example 78, 2-Biphenyl-4-yl-oxazole-4-carboxylic acid [1-(3,5-difluoro-4-methanesulfonylamino-phenyl)-ethyl]-amide] | > 10000 |
| C[C@@H](NC(=O)c1coc(-c2cccc3ccccc23)n1)c1cc(F)c(NS(C)(=O)=O)c(F)c1 [Example 88, 2-Naphthalen-1-yl-oxazole-4-carboxylic acid [1-(3,5-difluoro-4-methanesulfonylamino-phenyl)-ethyl]-amide] | 720 |

The next lines start with the values.

| IC50 [nM] | SMILES |
| --- | --- |
| 93 | C[C@@H](NC(=O)c1coc(Oc2cccc(I)c2)n1)c1cc(F)c(NS(C)(=O)=O)c(F)c1 [Example 58, 2-(3-Iodo-phenoxy)-oxazole-4-carboxylic acid [1-(3,5-difluoro-4-methanesulfonylamino-phenyl)-ethyl]-amide] |
| 870 | C[C@@H](NC(=O)c1coc(-c2cccc(-c3ccccc3)c2)n1)c1cc(F)c(NS(C)(=O)=O)c(F)c1 [Example 70, 2-Biphenyl-3-yl-oxazole-4-carboxylic acid [1-(3,5-difluoro-4-methanesulfonylamino-phenyl)-ethyl]-amide] |
| 1200 | CCCOc1cccc(-c2nc(C(=O)N[C@H](C)c3cc(F)c(NS(C)(=O)=O)c(F)c3)co2)c1 [Example 71, 2-(3-Propoxy-phenyl)-oxazole-4-carboxylic acid [1-(3,5-difluoro-4-methanesulfonylamino-phenyl)-ethyl]-amide] |
| 2400 | C[C@@H](NC(=O)c1coc(-c2ccc(C(C)(C)C)cc2)n1)c1cc(F)c(NS(C)(=O)=O)c(F)c1 [Example 75, 2-(4-tort-Butyl-phenyl)-oxazole-4-carboxylic acid [1-(3,5-difluoro-4-methanesulfonylamino-phenyl)-ethyl]-amide] |
| > 10000 | CC(=O)c1cccc(-c2nc(C(=O)N[C@H](C)c3cc(F)c(NS(C)(=O)=O)c(F)c3)co2)c1 [Example 76, 2-(3-Acetyl-phenyl)-oxazole-4-carboxylic acid [1-(3,5-difluoro-4-methanesulfonylamino-phenyl)-ethyl]-amide] |
| 1000 | C[C@@H](NC(=O)c1coc(-c2cccc(N(C)C)c2)n1)c1cc(F)c(NS(C)(=O)=O)c(F)c1 [Example 81, 2-(3-Dimethylamino-phenyl)-oxazole-4-carboxylic acid [1-(3,5-difluoro-4-methanesulfonylamino-phenyl)-ethyl]-amide] |
| 650 | C[C@@H](NC(=O)c1coc(-c2cccc(Cl)c2)n1)c1cc(F)c(NS(C)(=O)=O)c(F)c1 [Example 82, 2-(3-Chloro-phenyl)-oxazole-4-carboxylic acid [1-(3,5-difluoro-4-methanesulfonylamino-phenyl)-ethyl]-amide] |
| 880 | C[C@@H](NC(=O)c1coc(-c2cc(Cl)cc(Cl)c2)n1)c1cc(F)c(NS(C)(=O)=O)c(F)c1 [Example 83, 2-(3,5-Dichloro-phenyl)-oxazole-4-carboxylic acid [1-(3,5-difluoro-4-methanesulfonylamino-phenyl)-ethyl]-amide] |
| 1200 | C[C@@H](NC(=O)c1coc(-c2cccc(Cl)c2Cl)n1)c1cc(F)c(NS(C)(=O)=O)c(F)c1 [Example 85, 2-(2,3-Dichloro-phenyl)-oxazole-4-carboxylic acid [1-(3,5-difluoro-4-methanesulfonylamino-phenyl)-ethyl]-amide] |
| 1000 | C[C@@H](NC(=O)c1coc(-c2ccc(Cl)c(Cl)c2)n1)c1cc(F)c(NS(C)(=O)=O)c(F)c1 [Example 86, 2-(3,4-Dichloro-phenyl)-oxazole-4-carboxylic acid [1-(3,5-difluoro-4-methanesulfonylamino-phenyl)-ethyl]-amide] |
